Results published in US7396939B2, “3-cyclopropyl-4-(3-amino-2-methylbenzoyl)pyrazoles and their use as herbicides” (Bayer CropScience GmbH, priority 2004, dated 2008).
Like-named read-outs stand apart in the source and are kept apart here.

Columns and labels:
Assay type in all cases: in vivo
[1] = tested on: Zea mays (corn) (ZEAMX); test: Post-emergence damage of crop plants; details: post-emergence application
Procedure: (§1) Seeds of monocotyledonous and dicotyledonous harmful plants and seeds of corn, soybean and wheat are placed into sandy loam in cardboard pots, covered with soil and grown in the greenhouse under good growth conditions. Two to three weeks after sowing the harmful plants and the crop plants are treated in the three-leaf stage. The compounds according to the invention and the prior-art compounds, formulated as wettable powders or emulsion concentrates, are sprayed onto the green plant parts at an application rate of 600 to 800 l of water/ha (converted) in one of the dosages given in tables 1 to 10. After the test plants have remained in the greenhouse under optimum growth conditions for 3 to 4 weeks, the effect of the compounds is rated in comparison to compounds disclosed in the prior art.

[2] = tested on: Matricaria inodora (MATIN); test: Post-emergence action against harmful plants; details: for pest or weed control at 80 g/ha / pest or weed control at 320 g/ha: Tripleurospermum inodorum, read-out: Herbicidal action MATIN; for pest or weed control at 320 g/ha / Herbicidal action MATIN: 320 g of a.i./ha; for Herbicidal action MATIN: Comparative Table 10
Procedure: as §1

[3] = tested on: Echinochloa crus galli (ECHCG); test: Post-emergence action against harmful plants; details: post-emergence application
Procedure: as §1

[4] = tested on: Viola tricolor (VIOTR); test: Post-emergence action against harmful plants; details: post-emergence application, 80 g of a.i./ha, Comparative Table 1
Procedure: as §1

[5] = tested on: Digitaria sanguinalis (DIGSA); test: Post-emergence action against harmful plants; details: post-emergence application, 80 g of a.i./ha, Comparative Table 1
Procedure: as §1

[6] = tested on: Glycine max (soybean) (GLXMA); test: Post-emergence damage of crop plants; details: post-emergence application
Procedure: as §1

[7] = tested on: Oryza sativa (rice) (ORYSA); test: Damage of rice under paddy rice conditions; details: post-emergence application
Procedure: (§2) Rice plants and harmful plants typical in rice crops are grown in the greenhouse under paddy rice conditions (water level: 2-3 cm). After the treatment with the compounds according to the invention and the prior-art compounds, the test plants are placed in the greenhouse under optimum growth conditions and kept like this during the entire test. About three weeks after the application, evaluation is carried out by visual scoring of the damage to the plants.

[8] = tested on: Galium aparine (GALAP); test: Post-emergence action against harmful plants; details: post-emergence application
Procedure: as §1

[9] = tested on: Veronica persica (VERPE); test: Post-emergence action against harmful plants; details: post-emergence application
Procedure: as §1

[10] = tested on: Stellaria media (STEME); test: Post-emergence action against harmful plants; details: post-emergence application, 80 g of a.i./ha
Procedure: as §1

[11] = tested on: Galium aparine (GALAP); test: Pre-emergence action against harmful plants; details: pre-emergence application, 320 g of a.i./ha, Comparative Table 7
From the text: (§3) Seeds of monocotyledonous and dicotyledonous harmful plants and seeds of corn, soybean and wheat are placed into sandy loam in cardboard pots and covered with soil. The compounds according to the invention and the prior-art compounds, formulated as wettable powders or emulsion concentrates, are then applied to the surface of the covering soil as an aqueous suspension or emulsion at an application rate of 600 to 800 l of water/ha (converted) in one of the dosages given in tables 1 to 10. After the treatment, the pots are placed in a greenhouse and kept under good growth conditions for the harmful plants and crop plants. Visual scoring of plant or emergence damage is carried out after the test plants have emerged after an experimental period of 3 to 4 weeks.

[12] = tested on: Zea mays (corn) (ZEAMX); test: Pre-emergence damage of crop plants; details: pre-emergence application, 320 g of a.i./ha, Comparative Table 7
From the text: as §3

[13] = tested on: Avena fatua (AVEFA); test: Post-emergence action against harmful plants; details: post-emergence application, 320 g of a.i./ha, Comparative Table 8
Procedure: as §1

[14] = tested on: Pharbitis purpureum (PHBPU); test: Post-emergence action against harmful plants; details: post-emergence application, 320 g of a.i./ha
Procedure: as §1

[15] = tested on: Triticum aestivum (wheat) (TRZAS); test: Post-emergence damage of crop plants; details: post-emergence application, 320 g of a.i./ha, Comparative Table 6
Procedure: as §1

[16] = tested on: Setaria viridis (SETVI); test: Action against harmful plants in the rice test; details: post-emergence application, 320 g of a.i./ha, Comparative Table 5
Procedure: as §2

[17] = 80 g of a.i./ha, Comparative Table 1
[18] = post-emergence application, 80 g of a.i./ha, Comparative Table 1
[19] = 20 g of a.i./ha, Comparative Table 2
[20] = 80 g of a.i./ha, Comparative Table 3
[21] = post-emergence application, 80 g of a.i./ha, Comparative Table 3
[22] = 320 g of a.i./ha, Comparative Table 8
[23] = post-emergence application, Comparative Table 8
[24] = 320 g of a.i./ha, Comparative Table 9
[25] = 320 g of a.i./ha, Comparative Table 10
[26] = post-emergence application, Comparative Table 9
[27] = 320 g of a.i./ha, Comparative Table 6
[28] = 320 g of a.i./ha, Comparative Table 5
[29] = post-emergence application, Comparative Table 6
[30] = 80 g of a.i./ha, Comparative Table 4

SMILES: CCCNc1c(S(C)(=O)=O)ccc(C(=O)c2c(C3CC3)nn(C)c2O)c1C [No. 3]
- Damage to the crop plants ZEAMX [1, 17]: 30%
- pest or weed control at 80 g/ha [2, 18]: 70%
- Herbicidal action ECHCG [3, 17]: 90%
- Herbicidal action VIOTR [4]: 90%
- Herbicidal action DIGSA [5]: 90%

SMILES: CCCCNc1c(S(C)(=O)=O)ccc(C(=O)c2c(C3CC3)nn(C)c2O)c1C [No. 4]
- Damage to the crop plants GLXMA [6, 19]: 0%
- Damage to the crop plants ORYSA [7, 19]: 0%
- Herbicidal action GALAP [8, 19]: 80%
- Herbicidal action VERPE [9, 19]: 60%

SMILES: C=CCNc1c(S(C)(=O)=O)ccc(C(=O)c2c(C3CC3)nn(C)c2O)c1C [No. 5]
- Damage to the crop plants GLXMA [6, 20]: 0%
- Damage to the crop plants ZEAMX [1, 20]: 10%
- pest or weed control at 80 g/ha [2, 21]: 50%
- Herbicidal action GALAP [8, 20]: 80%
- Herbicidal action STEME ([10]; Comparative Table 3): 100%

SMILES: COCCNc1c(S(C)(=O)=O)ccc(C(=O)c2c(C3CC3)nn(C)c2O)c1C [No. 9]
- Herbicidal action GALAP [11]: 80%
- Damage to the crop plants GLXMA [6, 22]: 20%
- Damage to the crop plants ZEAMX [1, 22]: 0%
- Damage to the crop plants ZEAMX [12]: 0%
- pest or weed control at 320 g/ha [2, 23]: 80%
- Herbicidal action AVEFA [13]: 70%

SMILES: CCOCCNc1c(S(C)(=O)=O)ccc(C(=O)c2c(C3CC3)nn(C)c2O)c1C [No. 10]
- Damage to the crop plants GLXMA [6, 24]: 20%
- Damage to the crop plants GLXMA [6, 25]: 20%
- Damage to the crop plants ZEAMX [1, 25]: 0%
- pest or weed control at 320 g/ha [2, 26]: 100%
- Herbicidal action MATIN ([2]; post-emergence application): 100%
- Herbicidal action ECHCG [3, 25]: 100%
- Herbicidal action VERPE [9, 24]: 100%
- Herbicidal action VERPE [9, 25]: 100%
- Herbicidal action PHBPU ([14]; Comparative Table 9): 100%
- Herbicidal action PHBPU ([14]; Comparative Table 10): 100%

SMILES: Cc1c(C(=O)c2c(C3CC3)nn(C)c2O)ccc(S(C)(=O)=O)c1N1CCCC1 [No. 14]
- Damage to the crop plants TRZAS [15]: 0%
- Damage to the crop plants GLXMA [6, 27]: 10%
- Herbicidal action SETVI [16]: 100%
- Damage to the crop plants ORYSA [7, 28]: 10%
- pest or weed control at 320 g/ha [2, 29]: 50%
- Herbicidal action ECHCG [3, 27]: 80%

SMILES: Cc1c(C(=O)c2c(C3CC3)nn(C)c2O)ccc(S(C)(=O)=O)c1N1CCCCC1 [No. 15]
- Damage to the crop plants ZEAMX [1, 30]: 0%
- pest or weed control at 80 g/ha ([2]; post-emergence): 60%
- Herbicidal action STEME ([10]; Comparative Table 4): 70%

SMILES: CCOCCNc1c(S(C)(=O)=O)ccc(C(=O)c2c(C)nn(C)c2O)c1C [S1]
- Damage to the crop plants GLXMA [6, 24]: 90%
- pest or weed control at 320 g/ha [2, 26]: 60%
- Herbicidal action VERPE [9, 24]: 100%
- Herbicidal action PHBPU ([14]; Comparative Table 9): 90%

SMILES: CCCNc1c(S(C)(=O)=O)ccc(C(=O)c2c(C)nn(C)c2O)c1C [S2]
- Damage to the crop plants ZEAMX [1, 17]: 60%
- pest or weed control at 80 g/ha [2, 18]: 30%
- Herbicidal action ECHCG [3, 17]: 80%
- Herbicidal action VIOTR [4]: 80%
- Herbicidal action DIGSA [5]: 80%

SMILES: CCCCNc1c(S(C)(=O)=O)ccc(C(=O)c2c(C)nn(C)c2O)c1C [S3]
- Damage to the crop plants GLXMA [6, 19]: 20%
- Damage to the crop plants ORYSA [7, 19]: 30%
- Herbicidal action GALAP [8, 19]: 40%
- Herbicidal action VERPE [9, 19]: 20%

SMILES: C=CCNc1c(S(C)(=O)=O)ccc(C(=O)c2c(C)nn(C)c2O)c1C [S4]
- Damage to the crop plants GLXMA [6, 20]: 50%
- Damage to the crop plants ZEAMX [1, 20]: 30%
- pest or weed control at 80 g/ha [2, 21]: 30%
- Herbicidal action GALAP [8, 20]: 80%
- Herbicidal action STEME ([10]; Comparative Table 3): 100%

SMILES: Cc1nn(C)c(O)c1C(=O)c1ccc(S(C)(=O)=O)c(N2CCCCC2)c1C [S5]
- Damage to the crop plants ZEAMX [1, 30]: 10%
- pest or weed control at 80 g/ha ([2]; post-emergence application, 80 g of a.i./ha, Comparative Table 4): 40%
- Herbicidal action STEME ([10]; Comparative Table 4): 20%

SMILES: CCn1nc(C)c(C(=O)c2ccc(S(C)(=O)=O)c(N3CCCC3)c2C)c1O [S6]
- Damage to the crop plants TRZAS [15]: 10%
- Damage to the crop plants GLXMA [6, 27]: 20%
- Herbicidal action SETVI [16]: 90%
- Damage to the crop plants ORYSA [7, 28]: 20%
- pest or weed control at 320 g/ha [2, 29]: 0%
- Herbicidal action ECHCG [3, 27]: 50%

SMILES: CCn1nc(C)c(C(=O)c2ccc(S(C)(=O)=O)c(NCCOC)c2C)c1O [S7]
- Herbicidal action GALAP [11]: 70%
- Damage to the crop plants GLXMA [6, 22]: 60%
- Damage to the crop plants GLXMA [6, 25]: 60%
- Damage to the crop plants ZEAMX [1, 22]: 20%
- Damage to the crop plants ZEAMX [1, 25]: 20%
- Damage to the crop plants ZEAMX [12]: 20%
- pest or weed control at 320 g/ha [2, 23]: 70%
- Herbicidal action MATIN ([2]; post-emergence application): 70%
- Herbicidal action ECHCG [3, 25]: 90%
- Herbicidal action VERPE [9, 25]: 90%
- Herbicidal action PHBPU ([14]; Comparative Table 10): 40%
- Herbicidal action AVEFA [13]: 50%
